One block for each compound: values may come before it.
What was measured:
[1] = target: D(1B) dopamine receptor (Homo sapiens) (UniProt P21918); settings: Compound concentration 10.0 uM
[2] = target: Muscarinic acetylcholine receptor M1 (Homo sapiens) (UniProt P11229); settings: Compound concentration 10.0 uM
[3] = target: D(1A) dopamine receptor (Homo sapiens) (UniProt P21728); settings: Compound concentration 10.0 uM
[4] = target: Alpha-1B adrenergic receptor (Homo sapiens) (UniProt P35368); settings: Compound concentration 10.0 uM
[5] = target: Alpha-2A adrenergic receptor (Homo sapiens) (UniProt P08913); settings: Compound concentration 10.0 uM
[6] = target: 5-hydroxytryptamine receptor 1A (Homo sapiens) (UniProt P08908); settings: Compound concentration 10.0 uM
[7] = target: Kappa-type opioid receptor (Homo sapiens) (UniProt P41145); settings: Compound concentration 10.0 uM
[8] = target: Histamine H1 receptor (Homo sapiens) (UniProt P35367); settings: Compound concentration 10.0 uM
[9] = target: Muscarinic acetylcholine receptor M2 (Homo sapiens) (UniProt P08172); settings: Compound concentration 10.0 uM
[10] = target: 5-hydroxytryptamine receptor 1D (Homo sapiens) (UniProt P28221); settings: Compound concentration 10.0 uM
[11] = target: Delta-type opioid receptor (Homo sapiens) (UniProt P41143); settings: Compound concentration 10.0 uM
[12] = target: 5-hydroxytryptamine receptor 2A (Homo sapiens) (UniProt P28223); settings: Compound concentration 10.0 uM
[13] = target: T1, GABA-A receptor; anion channel (Rattus norvegicus) (UniProt O09028+P15431+P18506+P18508+P19969+P20236+P23574+P23576+P28471+P28473+P30191+P62813+P63079+P63138+Q91ZM7+Q9ES14); settings: Compound concentration 10.0 uM
[14] = target: Alpha-2B adrenergic receptor (Homo sapiens) (UniProt P18089); settings: Compound concentration 10.0 uM
[15] = target: Muscarinic acetylcholine receptor M5 (Homo sapiens) (UniProt P08912); settings: Compound concentration 10.0 uM
[16] = target: D(3) dopamine receptor (Homo sapiens) (UniProt P35462); settings: Compound concentration 10.0 uM
[17] = target: Beta-1 adrenergic receptor (Homo sapiens) (UniProt P08588); settings: Compound concentration 10.0 uM
[18] = target: 5-hydroxytryptamine receptor 6 (Homo sapiens) (UniProt P50406); settings: Compound concentration 10.0 uM
[19] = target: Alpha-2C adrenergic receptor (Homo sapiens) (UniProt P18825); settings: Compound concentration 10.0 uM
[20] = target: Alpha-1A adrenergic receptor (Homo sapiens) (UniProt P35348); settings: Compound concentration 10.0 uM
[21] = target: Alpha-1D adrenergic receptor (Homo sapiens) (UniProt P25100); settings: Compound concentration 10.0 uM
[22] = target: Mu-type opioid receptor (Homo sapiens) (UniProt P35372); settings: Compound concentration 10.0 uM
[23] = target: Muscarinic acetylcholine receptor M3 (Homo sapiens) (UniProt P20309); settings: Compound concentration 10.0 uM
[24] = target: 5-hydroxytryptamine receptor 1B (Homo sapiens) (UniProt P28222); settings: Compound concentration 10.0 uM
[25] = target: D(4) dopamine receptor (Homo sapiens) (UniProt P21917); settings: Compound concentration 10.0 uM
[26] = target: Beta-2 adrenergic receptor (Homo sapiens) (UniProt P07550); settings: Compound concentration 10.0 uM
[27] = target: Beta-3 adrenergic receptor (Homo sapiens) (UniProt P13945); settings: Compound concentration 10.0 uM
[28] = target: Sigma intracellular receptor 2 (Homo sapiens) (UniProt Q5BJF2); settings: Compound concentration 10.0 uM
[29] = target: Histamine H3 receptor (Homo sapiens) (UniProt Q9Y5N1); settings: Compound concentration 10.0 uM
[30] = target: Histamine H2 receptor (Homo sapiens) (UniProt P25021); settings: Compound concentration 10.0 uM
[31] = target: Sigma non-opioid intracellular receptor 1 (Homo sapiens) (UniProt Q99720); settings: Compound concentration 10.0 uM
[32] = target: 5-hydroxytryptamine receptor 7 (Homo sapiens) (UniProt P34969); settings: Compound concentration 10.0 uM
[33] = target: 5-hydroxytryptamine receptor 1E (Homo sapiens) (UniProt P28566); settings: Compound concentration 10.0 uM
[34] = target: 5-hydroxytryptamine receptor 3A (Homo sapiens) (UniProt P46098); settings: Compound concentration 10.0 uM
[35] = target: Muscarinic acetylcholine receptor M4 (Homo sapiens) (UniProt P08173); settings: Compound concentration 10.0 uM
[36] = target: T1, GABA-A receptor; anion channel (Rattus norvegicus); settings: Compound concentration 10.0 uM; remark: listed apart in the source
[37] = BET mutant TR-FRET assay (BRDT BD2); parameters: species or system Homo sapiens
[38] = target: Sodium-dependent serotonin transporter (Homo sapiens) (UniProt P31645); settings: Compound concentration 10.0 uM
Rattus norvegicus = species on record: Rattus norvegicus; settings: Compound concentration 10.0 uM
[39] = target: Histamine H4 receptor (Homo sapiens) (UniProt Q9H3N8); settings: Compound concentration 10.0 uM
[40] = target: D(2) dopamine receptor (Homo sapiens) (UniProt P14416); settings: Compound concentration 10.0 uM
[41] = target: 5-hydroxytryptamine receptor 5A (Homo sapiens) (UniProt P47898); settings: Compound concentration 10.0 uM
[42] = target: 5-hydroxytryptamine receptor 2C (Homo sapiens) (UniProt P28335); settings: Compound concentration 10.0 uM
[43] = target: Sodium-dependent noradrenaline transporter (Homo sapiens) (UniProt P23975); settings: Compound concentration 10.0 uM
[44] = target: 5-hydroxytryptamine receptor 2B (Homo sapiens) (UniProt P41595); settings: Compound concentration 10.0 uM

5-hydroxytryptamine receptor 3A (Homo sapiens), sequence (P46098 whole entry): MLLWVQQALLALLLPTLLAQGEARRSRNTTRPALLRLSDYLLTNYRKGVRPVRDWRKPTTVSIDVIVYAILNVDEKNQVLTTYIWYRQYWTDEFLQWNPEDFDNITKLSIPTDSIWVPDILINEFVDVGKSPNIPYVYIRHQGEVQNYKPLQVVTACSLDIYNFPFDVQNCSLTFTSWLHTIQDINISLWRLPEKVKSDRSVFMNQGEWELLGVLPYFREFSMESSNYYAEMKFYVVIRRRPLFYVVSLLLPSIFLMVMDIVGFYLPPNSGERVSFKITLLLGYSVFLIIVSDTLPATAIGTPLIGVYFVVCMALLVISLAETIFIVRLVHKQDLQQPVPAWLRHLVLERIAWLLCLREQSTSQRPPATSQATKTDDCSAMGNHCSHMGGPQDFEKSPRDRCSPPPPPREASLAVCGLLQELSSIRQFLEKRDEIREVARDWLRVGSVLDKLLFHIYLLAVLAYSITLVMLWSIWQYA
5-hydroxytryptamine receptor 1D (Homo sapiens), sequence (P28221 whole entry): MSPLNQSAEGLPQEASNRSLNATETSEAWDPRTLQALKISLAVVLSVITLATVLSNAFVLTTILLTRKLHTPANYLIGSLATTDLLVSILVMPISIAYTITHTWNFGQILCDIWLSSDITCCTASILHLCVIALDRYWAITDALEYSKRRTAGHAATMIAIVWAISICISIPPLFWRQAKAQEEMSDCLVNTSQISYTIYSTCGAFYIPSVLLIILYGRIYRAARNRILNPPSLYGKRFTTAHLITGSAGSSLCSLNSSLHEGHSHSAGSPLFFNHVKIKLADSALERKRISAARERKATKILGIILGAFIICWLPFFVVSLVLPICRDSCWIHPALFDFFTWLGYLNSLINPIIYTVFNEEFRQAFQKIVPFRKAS
Sigma intracellular receptor 2 (Homo sapiens), sequence (Q5BJF2 whole entry): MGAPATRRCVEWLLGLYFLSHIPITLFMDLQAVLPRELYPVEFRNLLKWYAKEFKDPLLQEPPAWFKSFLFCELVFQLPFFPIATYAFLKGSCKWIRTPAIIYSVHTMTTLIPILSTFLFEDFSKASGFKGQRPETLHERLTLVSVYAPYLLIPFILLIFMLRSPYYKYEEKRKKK
Delta-type opioid receptor (Homo sapiens), sequence (P41143 whole entry): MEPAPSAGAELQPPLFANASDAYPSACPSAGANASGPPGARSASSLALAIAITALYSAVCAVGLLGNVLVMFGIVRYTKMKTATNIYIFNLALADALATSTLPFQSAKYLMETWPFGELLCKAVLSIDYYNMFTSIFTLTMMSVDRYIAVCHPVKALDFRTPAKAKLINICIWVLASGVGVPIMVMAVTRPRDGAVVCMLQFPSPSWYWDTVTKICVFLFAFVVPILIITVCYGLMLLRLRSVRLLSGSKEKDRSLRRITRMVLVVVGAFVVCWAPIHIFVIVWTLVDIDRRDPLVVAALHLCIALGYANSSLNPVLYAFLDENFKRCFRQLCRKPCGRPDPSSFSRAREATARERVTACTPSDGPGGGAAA
Alpha-2A adrenergic receptor (Homo sapiens), sequence (P08913 whole entry): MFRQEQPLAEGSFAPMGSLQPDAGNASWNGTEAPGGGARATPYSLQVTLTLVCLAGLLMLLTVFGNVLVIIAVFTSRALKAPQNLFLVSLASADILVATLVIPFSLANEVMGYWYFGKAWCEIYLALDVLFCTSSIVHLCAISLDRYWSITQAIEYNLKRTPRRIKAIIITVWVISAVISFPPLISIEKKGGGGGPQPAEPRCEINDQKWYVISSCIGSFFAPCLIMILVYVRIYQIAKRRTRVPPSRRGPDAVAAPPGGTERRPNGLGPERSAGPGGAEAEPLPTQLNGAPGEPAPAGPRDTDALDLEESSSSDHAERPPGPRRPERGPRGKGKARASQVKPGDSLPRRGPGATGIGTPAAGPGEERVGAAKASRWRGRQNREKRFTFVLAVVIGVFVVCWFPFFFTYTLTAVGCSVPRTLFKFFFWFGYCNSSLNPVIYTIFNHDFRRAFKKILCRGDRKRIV
Alpha-2C adrenergic receptor (Homo sapiens), sequence (P18825 whole entry): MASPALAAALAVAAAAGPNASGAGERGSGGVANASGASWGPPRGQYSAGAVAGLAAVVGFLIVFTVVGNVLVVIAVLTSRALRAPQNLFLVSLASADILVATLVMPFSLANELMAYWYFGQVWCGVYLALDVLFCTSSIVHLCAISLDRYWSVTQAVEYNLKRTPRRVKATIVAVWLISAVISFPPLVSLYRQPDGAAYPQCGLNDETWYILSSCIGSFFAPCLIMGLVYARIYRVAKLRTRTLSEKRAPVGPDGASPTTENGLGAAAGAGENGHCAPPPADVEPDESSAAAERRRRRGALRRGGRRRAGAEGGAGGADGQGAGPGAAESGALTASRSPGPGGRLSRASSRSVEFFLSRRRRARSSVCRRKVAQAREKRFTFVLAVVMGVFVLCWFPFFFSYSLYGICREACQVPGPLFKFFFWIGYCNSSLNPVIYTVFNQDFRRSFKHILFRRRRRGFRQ
Muscarinic acetylcholine receptor M4 (Homo sapiens), sequence (P08173 whole entry): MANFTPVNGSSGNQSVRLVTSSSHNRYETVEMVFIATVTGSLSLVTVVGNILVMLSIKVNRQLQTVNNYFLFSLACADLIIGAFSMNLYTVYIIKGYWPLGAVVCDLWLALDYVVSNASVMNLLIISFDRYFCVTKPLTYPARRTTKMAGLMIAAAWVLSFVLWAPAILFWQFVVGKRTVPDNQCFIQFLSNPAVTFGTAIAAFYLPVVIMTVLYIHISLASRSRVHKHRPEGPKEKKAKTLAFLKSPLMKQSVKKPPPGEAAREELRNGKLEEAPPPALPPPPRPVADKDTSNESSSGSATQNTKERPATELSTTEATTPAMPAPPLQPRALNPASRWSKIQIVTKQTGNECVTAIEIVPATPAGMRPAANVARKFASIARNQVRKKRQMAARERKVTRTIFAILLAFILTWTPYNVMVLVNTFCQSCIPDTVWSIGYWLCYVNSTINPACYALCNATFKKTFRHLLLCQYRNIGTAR
D(4) dopamine receptor (Homo sapiens), sequence (P21917 whole entry): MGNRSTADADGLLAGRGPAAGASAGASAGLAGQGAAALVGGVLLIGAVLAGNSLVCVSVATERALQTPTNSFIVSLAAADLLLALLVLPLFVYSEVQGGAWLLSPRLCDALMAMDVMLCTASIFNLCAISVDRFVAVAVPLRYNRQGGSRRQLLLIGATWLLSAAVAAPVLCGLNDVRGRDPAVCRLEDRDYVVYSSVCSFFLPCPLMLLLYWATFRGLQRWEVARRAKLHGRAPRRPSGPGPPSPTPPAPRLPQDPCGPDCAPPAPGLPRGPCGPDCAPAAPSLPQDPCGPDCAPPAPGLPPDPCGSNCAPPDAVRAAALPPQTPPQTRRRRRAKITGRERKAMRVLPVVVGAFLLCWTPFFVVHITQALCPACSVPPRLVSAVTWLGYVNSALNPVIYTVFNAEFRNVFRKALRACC
Muscarinic acetylcholine receptor M2 (Homo sapiens), sequence (P08172 whole entry): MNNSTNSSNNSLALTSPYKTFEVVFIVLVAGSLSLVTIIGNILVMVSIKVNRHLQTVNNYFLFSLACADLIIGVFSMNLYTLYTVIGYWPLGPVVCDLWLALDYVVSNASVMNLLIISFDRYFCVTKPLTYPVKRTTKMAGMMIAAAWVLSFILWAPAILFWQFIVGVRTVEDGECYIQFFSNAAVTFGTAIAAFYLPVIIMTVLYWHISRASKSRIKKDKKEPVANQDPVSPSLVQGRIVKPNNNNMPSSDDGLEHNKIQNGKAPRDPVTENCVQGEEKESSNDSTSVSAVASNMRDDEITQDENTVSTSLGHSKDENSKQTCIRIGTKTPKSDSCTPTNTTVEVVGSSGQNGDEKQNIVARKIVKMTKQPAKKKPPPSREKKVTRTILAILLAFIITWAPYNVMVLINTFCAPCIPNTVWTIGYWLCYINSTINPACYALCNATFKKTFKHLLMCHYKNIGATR
Histamine H3 receptor (Homo sapiens), sequence (Q9Y5N1 whole entry): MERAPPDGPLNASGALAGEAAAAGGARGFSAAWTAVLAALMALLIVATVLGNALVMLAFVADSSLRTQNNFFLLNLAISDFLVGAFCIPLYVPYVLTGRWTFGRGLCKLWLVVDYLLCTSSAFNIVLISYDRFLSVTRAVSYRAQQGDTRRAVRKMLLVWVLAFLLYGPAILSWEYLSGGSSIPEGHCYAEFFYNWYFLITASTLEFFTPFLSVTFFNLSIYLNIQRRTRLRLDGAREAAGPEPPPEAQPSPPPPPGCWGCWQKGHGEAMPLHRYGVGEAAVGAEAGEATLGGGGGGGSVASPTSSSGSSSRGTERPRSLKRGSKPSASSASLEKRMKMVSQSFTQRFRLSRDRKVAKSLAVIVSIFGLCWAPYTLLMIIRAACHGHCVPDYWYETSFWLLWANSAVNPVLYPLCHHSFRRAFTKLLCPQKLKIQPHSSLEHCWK
Muscarinic acetylcholine receptor M3 (Homo sapiens), sequence (P20309 whole entry, looked up): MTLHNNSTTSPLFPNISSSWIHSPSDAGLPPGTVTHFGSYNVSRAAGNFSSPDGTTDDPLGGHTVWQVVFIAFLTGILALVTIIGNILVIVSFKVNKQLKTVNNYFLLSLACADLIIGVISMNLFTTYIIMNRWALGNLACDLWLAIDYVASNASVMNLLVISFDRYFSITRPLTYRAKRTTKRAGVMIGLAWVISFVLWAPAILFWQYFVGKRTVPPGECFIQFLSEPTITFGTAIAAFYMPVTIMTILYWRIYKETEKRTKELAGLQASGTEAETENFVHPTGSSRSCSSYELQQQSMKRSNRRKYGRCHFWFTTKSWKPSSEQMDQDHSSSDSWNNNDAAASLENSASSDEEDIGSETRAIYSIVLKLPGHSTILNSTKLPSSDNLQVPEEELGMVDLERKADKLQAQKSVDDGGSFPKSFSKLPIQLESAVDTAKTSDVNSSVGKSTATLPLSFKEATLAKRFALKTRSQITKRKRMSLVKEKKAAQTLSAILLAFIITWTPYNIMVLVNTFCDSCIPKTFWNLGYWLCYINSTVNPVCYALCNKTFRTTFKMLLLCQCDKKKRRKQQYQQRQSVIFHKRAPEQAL

inhibition [1]: -7.16%
inhibition [2]: 12.1%
inhibition [3]: -6.73%
inhibition [4]: -0.98%
inhibition [5]: 13.8%
inhibition [6]: 14.9%
inhibition [7]: 41.1%
inhibition [8]: -1.58%
inhibition [9]: -7.3%
inhibition [10]: -8.07%
inhibition [11]: 17.1%
inhibition [12]: 11.6%
inhibition [13]: 14.5%
inhibition [14]: 22.8%
inhibition [15]: 18%
inhibition [16]: 4.11%
inhibition [17]: 6.93%
inhibition [18]: -1.21%
inhibition [19]: 7.66%
inhibition [20]: 7.39%
inhibition [21]: -7.87%
inhibition [22]: 4.77%
inhibition [23]: 12.6%
inhibition [24]: -8.28%
inhibition [25]: 17.7%
inhibition [26]: 9.35%
inhibition [27]: 31%
inhibition [28]: 35.6%
inhibition [29]: -5.65%
inhibition [30]: 4.49%
inhibition [31]: 10.2%
inhibition [32]: 1.31%
inhibition [33]: 0.03%
inhibition [34]: 10.6%
inhibition [35]: 6.19%
inhibition [36]: 74.2%
SMILES: CNC(=O)c1cc(C(=O)N[C@H]2[C@@H]3COC[C@@H]32)cc2c1O[C@@H](CF)[C@@H]2c1ccccc1

inhibition [1]: 28.3%
pIC50 [37]: 7.4
inhibition [3]: 9.7%
inhibition [4]: 1.49%
inhibition [5]: 1.67%
inhibition [6]: 8.96%
inhibition [7]: 1.22%
inhibition [38]: 27.2%
inhibition [9]: -5.52%
inhibition [10]: -5.14%
inhibition [11]: 2.46%
inhibition [12]: 13.4%
inhibition [13]: 4.07%
inhibition (Rattus norvegicus): 9.06%
inhibition [14]: 12.5%
inhibition [15]: 2.23%
inhibition [16]: 81.8%
inhibition [17]: 6.03%
inhibition [18]: 16.8%
inhibition [19]: 8.26%
inhibition [20]: -4.55%
inhibition [21]: 3.51%
inhibition [22]: -5.14%
inhibition [39]: 9.36%
inhibition [40]: 60.9%
inhibition [23]: 11.2%
inhibition [24]: -0.1%
inhibition [41]: 12.5%
inhibition [25]: 81.6%
inhibition [26]: 17.9%
inhibition [27]: 15.5%
inhibition [42]: 22.2%
inhibition [28]: 14.3%
inhibition [43]: 0.32%
inhibition [29]: -9.57%
inhibition [44]: 28.2%
inhibition [30]: -3.94%
inhibition [31]: 28.4%
inhibition [32]: 13.6%
inhibition [34]: 20.2%
inhibition [35]: 2.78%
inhibition [36]: 30.2%
SMILES: CNC(=O)c1cc(C(=O)N[C@H]2[C@@H]3COC[C@@H]32)cc2c1O[C@H](CF)[C@H]2c1ccccc1 [GSK973]

Source: ChEMBL document CHEMBL4630902 (2021)
